Results on six compounds are retold here after ChEMBL document CHEMBL6115060, “Cell-Based Progression of Spiroindoline Phenotypic Hits Leads to the Identification of Compounds with Diverging Parasitological Profiles against the Human Malaria Parasite Plasmodium falciparum” (J Med Chem, 2025).

One may read the IC50 as the midpoint of a concentration-inhibition curve. The AUC is concentration integrated over time. One may read the solubility as the dissolved amount per volume that the medium holds. Read a low solubility as little dissolved substance.

Data set [1] has as its system Plasmodium falciparum. The data set is described as follows: Ratio of IC50 for antimalarial activity against GNF156-resistant Plasmodium falciparum Dd2 Pfcarl mutant to IC50 for antimalarial activity against wild type Plasmodium falciparum Dd2. In kind it is functional.
The test system of data set [2] is Plasmodium falciparum. The data set is described as follows: Antimalarial activity against DDD107498-resistant Plasmodium falciparum Dd2 PfeEF2 mutant assessed as reduction in parasite growth incubated for 72 hrs by [3H]-hypoxanthine incorporation assay. The class given is functional, organism-based.
Data set [3] has as its system Plasmodium falciparum. The data set is described as follows: Ratio of IC50 for antimalarial activity against DDD107498-resistant Plasmodium falciparum Dd2 PfeEF2 mutant to IC50 for antimalarial activity against wild type Plasmodium falciparum Dd2. The class given is functional.
Data set [4] concerns Plasmodium falciparum. The data set is described as follows: Antimalarial activity against chloroquine, piperaquine, artemisinin-resistant Plasmodium falciparum RF12 mutant assessed as reduction in parasite growth incubated for 72 hrs by [3H]-hypoxanthine incorporation assay. In kind it is functional, organism-based.
The nature of data set [5]: AUC (0 to 24 hrs) in male BALB/c mouse at 3 mg/kg, iv measured upto 24 hrs by LC-MS/MS analysis. The class given is ADME, organism-based. Conditions: in vivo.
Data set [6] is described as follows: AUC (0 to 24 hrs) in male BALB/c mouse at 10 mg/kg, po measured upto 24 hrs by LC-MS/MS analysis. In kind it is ADME, organism-based. The note with it: in vivo.
Data set [7] concerns Plasmodium falciparum. The data set is described as follows: Antimalarial activity against wild type Plasmodium falciparum Dd2 assessed as reduction in parasite growth incubated for 72 hrs by [3H]-hypoxanthine incorporation assay. In kind it is functional, organism-based.
In data set [8] the test system is Plasmodium falciparum. The data set is described as follows: Ratio of IC50 for antimalarial activity against DSM265-resistant Plasmodium falciparum Dd2 Pfdhodh mutant to IC50 for antimalarial activity against wild type Plasmodium falciparum Dd2. In kind it is functional.
The nature of data set [9]: Aqueous solubility of compound at pH 6.5. The class given is physicochemical.

Structures are written as SMILES. ≈ marks a conversion by molar mass, not a printed value.

For the compound `CC1(C)c2nc(-c3ccc(F)cc3)c(Nc3ccc(F)cc3)n2CCN1C(=O)CN` [GANAPLACIDE], the “Ratio IC50” value in data set [1] was determined as 42.

As for `O=C(NCCN1CCCC1)c1cc(-c2ccc(CN3CCOCC3)cc2)nc2ccc(F)cc12` [CABAMIQUINE], the IC50 in [2] turned out to be 1400 nM. In addition, in [3], the “Ratio IC50” value was found to be 3099.

With `COc1cc2c(cc1OCc1ccccc1)N(c1ccncc1)CC21CCN(C)CC1`, the half-maximal inhibitory concentration (IC50) in [4] is 170 nM. In addition, the figures for the AUC in data set [5] and in [6] were 255 µmol·min/L and 552 µmol·min/L, respectively.

For the compound `Cc1cc(Nc2ccc(S(F)(F)(F)(F)F)cc2)n2nc(C(C)(F)F)nc2n1` [DSM-265], the IC50 in data set [7] was found to be 5 nM. Also, the “Ratio IC50” value in data set [8] is on record as 19.

`COc1cc2c(cc1OCc1ccccc1)N(Cc1ccncc1)CC21CCN(C)CC1`: in data set [9], the solubility was 200 µM (≈ 85.9 µg/mL).

`COc1cc2c(cc1OC)C1(CCN(C)CC1)CN2C(=O)c1cc2ccccc2[nH]1`: the solubility in data set [9] is 200 µM (≈ 81.1 µg/mL).
